Measurements from patent publication US6815546B2, “Analogues of camptothecin, their use as medicaments and the pharmaceutical compositions containing them” (Societe de Recherches et d'Applications Scientifiques …, priority 1995, dated 2004).

Columns and labels:
Format in all cases: cell-based
[1] = tested on: A549 (human lung carcinoma); assay: Test on cell proliferation (MTT test), A549; conditions: 72 hours
Method: (§1) a. Eight tumoral cell lines are used in this study: L1210 (mouse lymphocytic leukemia), HCT15 and LOVO (cell lines of human colon adenocarcinoma), A549 (human lung carcinoma), A172, U373 et U87 (human glioblastoma). All these lines are obtained from the American Type Culture Collection (ATCC), Rockville, Md. The L1210 cell cultures in suspension are cultured in Dulbecco's modified Eagle's medium (DMEM) (BioWhitaker, Verviers, Belgium) together with 10% of foetal calf serum inactivated by heating, 2 mM of glutamine, 50 μg/ml of penicillin and 50 μg/ml of streptomycin. The HT29 cells are cultured in mono-layer cultures in a McCoy 5a medium (Gibco, Paisley, United Kingdom) together with 10% of foetal calf serum inactivated by heat plus 2 mM of glutamine and 50 μg/ml of gentamycin. The other cells are cultured in an Earle's modified essential medium (EMEM; Gibco, Paisley, United Kingdom) together with 5% foetal calf serum inactivated by heat, 2 mM of glutamine, 50 U/ml of penicillin and 50 μg/ml of streptomycin. All the cell lines are cultured at 37° C. in a humidified atmosphere containing 95% air and 5% CO2.
(§2) Inhibition of the tumor cell line proliferation is determined using an MTT test. 1500 L1210 cells in a culture medium (according to the needs of the cell medium) are seeded in a well of a micro-well plate (tissue culture level: 96 wells, flat bottom) 24 hours before treatment with the compounds to be tested. For these dose-response studies, the cells are incubated with each of the compounds to be tested or their corresponding solvent (controls) for 48 hours over a final concentration range of 1.10^−10 to 1.10^−4 M. All the compounds are dissolved just before use in dimethylsulphoxide (DMSO) at a concentration of 50 mM. Other dilutions of the medicaments are carried out in the culture medium. The final concentration of DMSO never exceeds 0.2% (v/v). As controls, the solutions of medicaments are replaced with the solvent which is diluted successively in the same way as the compounds to be tested.
(§3) After the incubation period, the labeling reagent MTT (3-[4,5-dimethylthiazol-2-yl]-2,5-diphenyltetrazolium bromide; Thiazol blue, Sigma M 565, Sigma, St Louis, Mo.) is added at a final concentration of 0.3 mg/ml to each well. The cells are incubated for 4 hours at 37° C. in a humidified atmosphere. This stage allows the mitochondrial dehydrogenase of the living cells to convert the yellow tetrazolium salt MTT into crimson formazan crystals. The supernatant part is eliminated and the formazan crystals formed are solubilized with DMSO. The resultant coloured solution is quantified by absorbance at 570 nm by using a multi-cuvette scanning spectrophotometer. The data concerning the proliferation is expressed as a percentage of living cells in the treated wells, divided by the living cells in the controls. Each point represents the average of three independent experiments, each experiment represents six determinations.
(§4) For the other cell lines (HCT15, LOVO, A549, A172, U373, U87), 1000 to 2000 cells are seeded in the well of a micro-well plate 24 hours before medicinal treatment. […]
(§5) The results are expressed as percentages of the calculated proliferation by the optical density (OD) of the cells treated with a medicament divided by the OD of the control cells (cells treated with DMSO). As represented in Table II, the compounds to be tested have inhibited the proliferation of cells in a dose-dependent manner.

[2] = tested on: L1210 (mouse lymphocytic leukemia); assay: Test on cell proliferation (MTT test), L1210; conditions: 48 hours
Method: as §1, §2, §3, §5

[3] = tested on: U373 (human glioblastoma); assay: Test on cell proliferation (MTT test), U373; conditions: 72 hours
Method: as §1, §2, §3, §4, §5

[4] = tested on: A172 (human glioblastoma); assay: Test on cell proliferation (MTT test), A172; conditions: 72 hours
Method: as §1, §2, §3, §4, §5

U87 (human glioblastoma) = assay: Test on cell proliferation (MTT test), U87; conditions: 72 hours
Method: as §1, §2, §3, §4, §5

Row | SMILES | PERCENTAGE OF CELL PROLIFERATION ([1]; 0.1 nM) | PERCENTAGE OF CELL PROLIFERATION ([1]; 1 nM) | PERCENTAGE OF CELL PROLIFERATION ([1]; 10 nM) | PERCENTAGE OF CELL PROLIFERATION ([1]; 100 nM) | PERCENTAGE OF CELL PROLIFERATION ([1]; 1 000 nM) | PERCENTAGE OF CELL PROLIFERATION ([1]; 10 000 nM) | PERCENTAGE OF CELL PROLIFERATION ([1]; 100 000 nM) | PERCENTAGE OF CELL PROLIFERATION ([2]; 0.1 nM) | PERCENTAGE OF CELL PROLIFERATION ([2]; 1 nM) | PERCENTAGE OF CELL PROLIFERATION ([2]; 10 nM) | PERCENTAGE OF CELL PROLIFERATION ([2]; 100 nM) | PERCENTAGE OF CELL PROLIFERATION ([2]; 1 000 nM) | PERCENTAGE OF CELL PROLIFERATION ([2]; 10 000 nM) | PERCENTAGE OF CELL PROLIFERATION ([2]; 100 000 nM) | PERCENTAGE OF CELL PROLIFERATION ([3]; 0.1 nM) | PERCENTAGE OF CELL PROLIFERATION ([3]; 1 nM) | PERCENTAGE OF CELL PROLIFERATION ([3]; 10 nM) | PERCENTAGE OF CELL PROLIFERATION ([3]; 100 nM) | PERCENTAGE OF CELL PROLIFERATION ([3]; 1 000 nM) | PERCENTAGE OF CELL PROLIFERATION ([3]; 10 000 nM) | also measured
1 | CCC1(O)CC(=O)OCc2c1cc1n(c2=O)Cc2cc3ccccc3nc2-1 (stereo not shown) [Example 3, 5-ethyl-5-hydroxy-1,4,5,13-tetrahydro-3H,15H-oxepino [3′,4′:6,7]indolizino[1,2-b]quinoline-3,15-dione] | 132.00% | 111.00% | 75.00% | 39.00% | 35.00% | 10.00% | 11.00% | 87.22% | 68.92% | 42.64% | 26.85% | 10.83% | 2.11% | 2.20% | 99.00% | 98.00% | 40.00% | 24.00% | 17.00% | 13.00% | PERCENTAGE OF CELL PROLIFERATION ([3]; 100 000 nM): 9.00%; PERCENTAGE OF CELL PROLIFERATION ([4]; 0.1 nM): 89.00%; PERCENTAGE OF CELL PROLIFERATION ([4]; 1 nM): 101.00%; PERCENTAGE OF CELL PROLIFERATION ([4]; 10 nM): 68.00%; PERCENTAGE OF CELL PROLIFERATION ([4]; 100 nM): 37.00%; PERCENTAGE OF CELL PROLIFERATION ([4]; 1 000 nM): 27.00%; PERCENTAGE OF CELL PROLIFERATION ([4]; 10 000 nM): 10.00%; PERCENTAGE OF CELL PROLIFERATION ([4]; 100 000 nM): 7.00%; PERCENTAGE OF CELL PROLIFERATION (U87 (human glioblastoma); 0.1 nM): 108.00%; PERCENTAGE OF CELL PROLIFERATION (U87 (human glioblastoma); 1 nM): 85.00%; PERCENTAGE OF CELL PROLIFERATION (U87 (human glioblastoma); 10 nM): 42.00%; PERCENTAGE OF CELL PROLIFERATION (U87 (human glioblastoma); 100 nM): 23.00%; PERCENTAGE OF CELL PROLIFERATION (U87 (human glioblastoma); 1 000 nM): 15.00%; PERCENTAGE OF CELL PROLIFERATION (U87 (human glioblastoma); 10 000 nM): 5.00%; PERCENTAGE OF CELL PROLIFERATION (U87 (human glioblastoma); 100 000 nM): 6.00%
2 | CCc1c2c(nc3ccccc13)-c1cc3c(c(=O)n1C2)COC(=O)CC3(O)CC (stereo not shown) [Example 9, 5,12-diethyl-5-hydroxy-1,4,5,13-tetrahydro-3H,15H-oxepino[3′,4′:6,7]indolizino[1,2-b]quinoline-3,15-dione] | 91.00% | 88.00% | 50.00% | 31.00% | 23.00% | 5.00% | 3.00% | 74.04% | 62.05% | 44.72% | 34.01% | 20.20% | 4.34% | 1.58% | 89.00% | 69.00% | 24.00% | 18.00% | 8.00% | 3.00% | PERCENTAGE OF CELL PROLIFERATION ([3]; 100 000 nM): 1.00%; PERCENTAGE OF CELL PROLIFERATION ([4]; 0.1 nM): 97.00%; PERCENTAGE OF CELL PROLIFERATION ([4]; 1 nM): 89.00%; PERCENTAGE OF CELL PROLIFERATION ([4]; 10 nM): 44.00%; PERCENTAGE OF CELL PROLIFERATION ([4]; 100 nM): 36.00%; PERCENTAGE OF CELL PROLIFERATION ([4]; 1 000 nM): 19.00%; PERCENTAGE OF CELL PROLIFERATION ([4]; 10 000 nM): 3.00%; PERCENTAGE OF CELL PROLIFERATION ([4]; 100 000 nM): 1.00%; PERCENTAGE OF CELL PROLIFERATION (U87 (human glioblastoma); 0.1 nM): 105.00%; PERCENTAGE OF CELL PROLIFERATION (U87 (human glioblastoma); 1 nM): 72.00%; PERCENTAGE OF CELL PROLIFERATION (U87 (human glioblastoma); 10 nM): 14.00%; PERCENTAGE OF CELL PROLIFERATION (U87 (human glioblastoma); 100 nM): 7.00%; PERCENTAGE OF CELL PROLIFERATION (U87 (human glioblastoma); 1 000 nM): 4.00%; PERCENTAGE OF CELL PROLIFERATION (U87 (human glioblastoma); 10 000 nM): 2.00%; PERCENTAGE OF CELL PROLIFERATION (U87 (human glioblastoma); 100 000 nM): 6.00%
